Values of other authors as cited in US20230081296A1, “STABLE NON-AQUEOUS COMPOSITIONS OF PLANTS EXTRACTS AND METHODS OF MAKING THE SAME” (Nulixir Inc., priority 2021, published 2023).

Details: reference phases water and n-octanol; categorization assumed at pH = 7 unless stated otherwise

(-)-schisandrin C
logP: ~3.5

CC(/C=C/C=C(\C)C(=O)O[C@@H]1O[C@H](CO[C@@H]2O[C@H](CO)[C@@H](O)[C@H](O)[C@H]2O)[C@@H](O)[C@H](O)[C@H]1O)=C\C=C\C=C(C)\C=C\C=C(/C)C(=O)O[C@@H]1O[C@H](CO[C@@H]2O[C@H](CO)[C@@H](O)[C@H](O)[C@H]2O)[C@@H](O)[C@H](O)[C@H]1O [alpha -crocin]
logP: ~-1.5

N#C[C@@]1(O[C@@H]2O[C@H](CO)[C@@H](O)[C@H](O)[C@H]2O)C=C[C@@H](O)C1 [tetraphyllin B]
logP: ~-2.5

COc1cc(/C=C/c2ccccc2)oc(=O)c1 [5,6-dehydrokawain]
logP: ~2.9

COC1=CC(=O)O[C@@H](CCc2ccc3c(c2)OCO3)C1 [7,8-dihydromethysticin]
logP: ~2.2

schisandroside C
logP: ~1.6

hericerin
logP: ~6.4

COc1ccc(CCc2cc(OC)cc(=O)o2)cc1 [7,8-dihydroyangonin]
logP: ~2.9

herinacine A
logP: ~2.5

COc1cc(/C=C\c2ccc(OC)c(O)c2)oc(=O)c1 [11-hydroxyyangonin]
logP: ~2.2

tortuosomine
logP: ~3

COc1cc2c(c(OC)c1OC)-c1c(cc(OC)c(OC)c1OC)C[C@H](C)[C@H](C)C2 [(-)-schisandrin A]
logP: ~3.6

CC1=C(CO)C(=O)O[C@@H]([C@@H](C)[C@H]2CC[C@H]3[C@@H]4C[C@H](Cl)[C@]5(O)[C@@H](O)C=CC(=O)[C@]5(C)[C@H]4CC[C@]23C)C1 [6a-chloro-5b-hydroxywithaferin A]
logP: ~3.2

COc1cc2c(c(OC)c1OC)-c1c(cc(OC)c(OC)c1OC)C[C@](C)(O)[C@@H](C)C2 [(+)-schisandrin]
logP: ~5

COc1cc2c(c(OC)c1OC)-c1c(cc(OC)c(OC)c1OC)C[C@](C)(O)[C@@H](C)C2 [schisandrol A]
logP: ~3.4

(R)-kawain
logP: ~2.7

COc1ccc([C@@]23CCC(=O)C[C@@H]2N(C)CC3)cc1OC [mesembrine]
logP: ~1.5

COc1nc2c(c(=O)n1C)n(C)c(=O)n2C [methylliberine]
logP: ~-0.083

COC1=CC(=O)OC(/C=C/c2ccc(OC)cc2)C1 (centres unmarked) [5,6-dihydroyangonin]
logP: ~2.5

CC(=O)OC1C=CC(=O)N(C(=O)CCc2ccccc2)C1 (centres unmarked) [pipermethystine]
logP: ~1.8

bacopaside B
logP: ~2.8

COc1cc2c(c(OC)c1OC)-c1c(cc3c(c1OC)OCO3)CC(C)C(C)C2 (single isomer, unassigned; (-)) [(-)-schisandrin B]
logP: ~4

COc1cc([C@H]2Oc3cc(O)c4c(=O)c(O)c(-c5ccc(O)cc5)oc4c3O[C@@H]2CO)ccc1O [rhodiolin]
logP: ~2
